Source: patent publication US6689788B1, “Method and composition for treatment of inflammatory bowel disease” (University of Florida, priority 2000, dated 2004)
“Also recorded” adds a separate entry of the source.

Legend:
mice = conditions: mouse, in vivo
Text: DFO and DFT given i.r. at a dose of 650 μmol/kg were ineffective. […] See, for example, FIGS. 7 and 8.

iron = iron chelator activity when given to rats; type: in vivo
Text: (§1) The lesions were apparently resolving and with some lamina proprial fibrosis and considerable hyperplasia of submucosal lymphoid tissue. […] This is a highly desirable property, as patients suffering from IBD are already anemic due to disease-related blood loss.

[1] = system: acetic acid-induced colitis; test: reversal studies, compound given 30 minutes after 2.5% acetic acid; type: in vivo, rat
Text: as §1

[2] = system: acetic acid-induced colitis; test: acetic acid-induced colitis in the rat, test drug i.r. 30 minutes before acetic acid; type: in vivo; conditions: for damage in the colons: 650 μmol/kg i.r. 30 minutes before acetic acid, colons assessed 24 hours later
Text: A typical model of IBD in acetic acid-induced colitis in the rat has been described by Krawisz et al in Amer. J. Proc. Gastro. Col. Rec. Surg., Vol. 31, pages 11-18 (1980); and by Sharon et al in Gastroenterology, Vol. 88, pages 55-63 (1985) and Vol. 86, pages 453-460 (1984). Acetic acid-induced colitis is characterized by the movement of inflammatory cells into the colon, with the number of such cells in the mucosa being measured by the activity of myeloperoxidase, a marker enzyme for these cells. Positive desirable activity is indicated by a reduction in the high levels of myeloperoxidase caused by acetic acid. Typically, Sprague-Dawley rats from Charles River Laboratories, Portage, Mich. (either sex, weight approximately 250 g) are dosed with test compounds and controls. Thereafter, the rats are given an intracolonic enema of acetic acid which produces a severe inflammatory response in the colon of a healthy rat characterized by rectal bleeding, diarrhea, epithelial erosions and destructions of crypts and gland cells. Twenty-four hours later, the test and control animals are sacrificed and the distal ten centimeters of the colons are removed and opened longitudinally. The tissue lesions contained within the removed, opened section of the colons are scored. After the systematic evaluation of the impact of various fasting times, use of vehicles, the time interval between pre-treatment and administration of the acetic acid and altering the concentration of acetic acid, the final protocol for the experiments is to fast the rats for 30 hours in hanging wire cages, anesthetize the animals with sodium pentobarbital, administer the test drug 1 cc intrarectally (i.r.) either as a suspension or a solution in water, and to give the acetic acid (7.5% in water) 1 cc i.r. 30 minutes later. The rats are sacrificed 24 hours later and the colons are removed and assessed for damage.

[3] = iron binding in a test tube; type: physicochemical
Text: as §1

SMILES	acute toxicity (mice)	activity as an iron chelator (iron; orally)	activity as an iron chelator (iron; subcutaneously (s.c.))	lesions compared with the control group [1]	dose response study, prevention of severe lesions ([2]; 162.5 μmol/kg (41.5 mg/kg) at 1 cc i.r.)	damage in the colons [2]	head-to-head comparison with 5-ASA or its commercially available formulation (Rowasa) ([2]; compound 650 μmol/kg vs. 5-ASA/Rowasa 1742 μmol/kg)	iron binding [3]
Cc1ccc(O)c(C2=NC(C(=O)O)CC2)c1 (stereo not shown) [2H-pyrrolecarboxylic acid, 3,4-dihydro-5-(2-hydroxy-5-methylphenyl)-2H-pyrrole-2-carboxylic acid]	virtually non-toxic	inactive	inactive	less severe and less active	severe lesions being prevented in a majority of rats	very little damage; also recorded: considerably less damage	far superior	binds iron remarkably well
CC(=O)N(O)CCCCCNC(=O)CCC(=O)N(O)CCCCCNC(=O)CCC(=O)N(O)CCCCCN [DFO, reference compound]						ineffective		
C[C@]1(C(=O)O)CSC(c2ncccc2O)=N1 [DFT, reference compound]						ineffective		
